One data set has as its target T1, hMAO-A (Homo sapiens, UniProt P21397).
T1 construct: purchased Sigma Aldrich; host or cells: insect cells (BTI-TN-5B1-4), recombinant baculovirus
T1 sequence (P21397 1-527): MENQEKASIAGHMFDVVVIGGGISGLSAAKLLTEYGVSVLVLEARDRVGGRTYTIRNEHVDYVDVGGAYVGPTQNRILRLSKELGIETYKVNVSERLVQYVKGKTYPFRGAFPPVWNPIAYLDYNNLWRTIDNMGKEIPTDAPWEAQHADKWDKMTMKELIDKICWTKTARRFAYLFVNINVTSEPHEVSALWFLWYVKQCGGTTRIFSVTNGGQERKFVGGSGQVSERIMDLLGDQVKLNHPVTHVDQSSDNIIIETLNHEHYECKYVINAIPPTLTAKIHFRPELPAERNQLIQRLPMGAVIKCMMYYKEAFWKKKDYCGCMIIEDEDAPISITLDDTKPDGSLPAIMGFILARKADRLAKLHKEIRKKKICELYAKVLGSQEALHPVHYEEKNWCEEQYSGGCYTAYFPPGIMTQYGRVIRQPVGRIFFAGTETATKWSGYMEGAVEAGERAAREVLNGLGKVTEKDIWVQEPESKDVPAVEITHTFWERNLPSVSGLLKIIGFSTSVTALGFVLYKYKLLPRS
The data set can be described thus: hMAO-A inhibitory activity assay (kynuramine). It counts as biochemical. Particulars: read-out: % inhibition at 10 µM hMAO-A, kynuramine substrate. As to the method: (§1) The hMAO inhibitory activities were assessed in microsomal MAO isoforms, prepared from insect cells (BTI-TN-5B1-4) infected with recombinant baculovirus containing cDNA inserts for hMAO-A or hMAO-B, by measuring the enzymatic conversion rates of kynuramine into 4-hydroxyquinoline. […] All assays were performed in sodium phosphate buffer solution 50 mM pH 7.4.
(§2) The percentages of MAO inhibition of each compound were determined from three independent experiments performed in triplicate.

The nature of data set [1]: Chromatographic Hydrophobicity Index (CHI) by HPLC, CHILogD7.4. Conditions: pH 7.4.
Method: The CHI values at pH 7.4 were determined using an experimental protocol described elsewhere [23, 25]. The CHI values were assessed from experimental retention times (tR) of the compounds under study and a mixture of reference compounds obtained on the HPLC system with a Luna C18 (2) column (150 × 4.6 mm, 5 µm, Phenomenex, CA, USA). […] Mobile phase A was 10 mM ammonium acetate (pH 7.4) and mobile phase B was acetonitrile. The following gradient program was applied: 0–7 min 0–100% B, 7–15 min 100% B, 15–17 min 100–0% B. The flow was 1 mL/min, and the injection volume was 40 μL.
The target of another data set is T2, hMAO-B (Homo sapiens, UniProt P27338).
T2 construct: purchased Sigma Aldrich; host or cells: insect cells (BTI-TN-5B1-4), recombinant baculovirus
T2 sequence (P27338 1-520): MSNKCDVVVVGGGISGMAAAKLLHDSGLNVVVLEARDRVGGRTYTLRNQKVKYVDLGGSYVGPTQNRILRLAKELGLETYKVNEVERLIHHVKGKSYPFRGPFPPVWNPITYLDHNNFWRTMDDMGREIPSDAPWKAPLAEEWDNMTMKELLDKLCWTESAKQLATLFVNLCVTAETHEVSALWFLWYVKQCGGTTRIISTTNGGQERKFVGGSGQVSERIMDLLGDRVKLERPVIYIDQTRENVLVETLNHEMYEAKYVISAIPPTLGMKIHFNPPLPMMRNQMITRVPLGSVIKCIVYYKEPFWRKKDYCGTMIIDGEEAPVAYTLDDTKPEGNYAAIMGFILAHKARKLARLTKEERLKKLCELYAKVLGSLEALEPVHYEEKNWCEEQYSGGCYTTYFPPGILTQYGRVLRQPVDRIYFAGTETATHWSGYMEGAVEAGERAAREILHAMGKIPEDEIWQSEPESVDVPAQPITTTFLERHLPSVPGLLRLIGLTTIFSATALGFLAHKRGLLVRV
As to the kind of experiment: biochemical. Conditions: read-out: % inhibition at 10 µM hMAO-B, kynuramine substrate. As to the method:
as §1, §2

In data set [2] the test system is differentiated SH-SY5Y cells. The data set can be described thus: Neutral red uptake cytotoxicity assay, differentiated SH-SY5Y. Conditions: 24 h; for Top (maximal effect): maximum cell death of fitted curve; for EC50: Homo sapiens, cell death curves 0–1500 µM, read-out: EC50 (half-maximum-effect concentration). It counts as cell-based. The method, then:
SH-SY5Y cells were acquired from the American Type Culture Collection (Manassas, VA, USA). Cells were cultured in 25 cm^2 flasks using DMEM—high glucose supplemented with 10% heat-inactivated FBS, 1% MEM non-essential amino acids and 1% penicillin/streptomycin mixture, and maintained in a 5% CO2–95% air atmosphere, at 37 °C, until 80% confluence. Cells were routinely subcultured using trypsin-EDTA and, to avoid phenotypic alterations, were always used between passages 23 and 29. In all experiments, the cells were seeded at a density of 25,000 cells/cm^2. As previously described, to achieve a dopaminergic neuronal phenotype, the cells were seeded in a complete DMEM medium containing 10 μM retinoic acid and, after 3 days, 80 nM TPA was added to the cultures for another 3 days.
Neutral red uptake and resazurin reduction assays were performed after exposure of differentiated SH-SY5Y and HepG2 cells to the drugs under study. To obtain a concentration–response curve, a broad concentration range (0–2000 µM) was investigated, and cytotoxicity was evaluated 24 h after exposure in 96-well cell culture plates. As previously described, neutral red uptake assay is based on the incorporation of neutral red dye into the lysosomes of viable cells and the amount of dye incorporated represents the cells’ lysosomal functionality, and resazurin reduction assay is based on the irreversible reduction of resazurin dye to the fluorescent resorufin product by metabolically active cells.
Briefly, 24 h after being exposed to different concentrations of the compounds, differentiated SH-SY5Y cells were incubated with either neutral red (50 µg/mL) or resazurin (10 µg/mL) solutions for 90 min, at 37 °C, in a 5% CO2–95% air atmosphere. For HepG2 cells, 24 h after the exposure to the tested drugs, the cells were incubated with either neutral red (50 µg/mL) or resazurin (10 µg/mL) solutions for 45 and 60 min, respectively, at 37 °C, in a 5% CO2–95% air atmosphere.
In the neutral red uptake assay, at the end of the incubation period, the cell culture medium was removed and a solution of absolute ethyl alcohol/distilled water (1:1) with 5% acetic acid was added to extract the dye absorbed only by the viable cells. The absorbance was measured at 540 nm in a multi-well plate reader (PowerWaveX BioTek Instruments, Winooski, VT, USA). In the resazurin assay, at the end of the incubation period, the fluorescence was measured at 530 nm excitation and 590 nm emission wavelengths in a multi-well plate reader (PowerWaveX BioTek Instruments, Winooski, VT, USA).
The results were expressed as a percentage of control cells. At least four independent experiments were performed, in triplicate. For differentiated SH-SY5Y cells, the neutral red uptake assay was identified as the most sensitive assay and, therefore, used for the subsequent experiments. On the other hand, for HepG2 cells, the resazurin reduction assay was identified as the most sensitive assay and, therefore, used for the subsequent experiments.

A short description of data set [3]: PAMPA-BBB permeability assay. The source says: In the present study we used a Parallel Artificial Membrane Permeation Assay (PAMPA) with a membrane mimicking the BBB phospholipidic composition (PAMPA-BBB) to evaluate and predict passive, transcellular permeability of the mescaline-NBOMe, 25B-NBOMe and 25N-NBOMe drugs.
The PiON inc database software was used for data analysis.
Background: The PAMPA barrier holds no transporters, so it reflects passive diffusion.

As to `COc1cc(CCN)c(OC)cc1Br` [2C-B, 4-Bromo-2,5-dimethoxy-β-phenethylamine], on hMAO-A, the inhibition at 10 µM stood at 17.5%. This compound also yielded a chromatographic logD in data set [1] of 0.7. Further, on hMAO-B, the inhibition at 10 µM came out at 27.2%. Also, in data set [2], the “Bottom (baseline)” value is listed as 1.900, the “Hill Slope” value is recorded as 1.746, the “Top (maximal effect)” value is given as 93.68 and the EC50 was 165 µM.
For the compound `COc1cc([N+](=O)[O-])c(OC)cc1CCN` [2C-N, 2,5-dimethoxy-4-nitrophenethylamine], the inhibition at 10 µM at hMAO-A amounted to 5.8%. This compound yielded a chromatographic logD in data set [1] of 0.37. The inhibition at 10 µM at hMAO-B was found to be 18%. Further, in data set [2], the “Bottom (baseline)” value stood at 6.911, the “Hill Slope” value was determined as 2.691, the “Top (maximal effect)” value is recorded as “≈100” and the EC50 came to 733 µM.
With `COc1cc(CCNCc2ccccc2OC)c(OC)cc1Br` [25B-NBOMe, 4-Bromo-2,5-dimethoxy-N-(2-methoxybenzyl)-β-phenethylamine], the inhibition at 10 µM at hMAO-A worked out at 15%. Moreover, the chromatographic logD in data set [1] amounted to 2.32. Further, the “−Log Pe ± SD” value in data set [3] was 4.4 ± 0.36. Moreover, the inhibition at 10 µM at hMAO-B worked out at 33.9%. Besides, in data set [2], the “Bottom (baseline)” value was 0.0825, the “Hill Slope” value turned out to be 2.687, the “Top (maximal effect)” value amounted to 87.85 and the EC50 was determined as 33.9 µM.
Take `COc1cc([N+](=O)[O-])c(OC)cc1CCNCc1ccccc1OC` [25N-NBOMe, 4-Nitro-2-dimethoxy-N-(2-methoxybenzyl)-β-phenethylamine]: the inhibition at 10 µM on hMAO-A turned out to be 8.9%. The compound also registered a chromatographic logD in data set [1] of 1.96. Further, the “−Log Pe ± SD” value in data set [3] is given as 4.6 ± 0.34. Further, the inhibition at 10 µM at hMAO-B came to 25.5%. In data set [2], the “Bottom (baseline)” value was found to be 2.841, the “Hill Slope” value came out at 5.758, the “Top (maximal effect)” value was found to be 87.38 and the EC50 amounted to 125 µM.
In the case of `COc1cc(CCN)cc(OC)c1OC.Cl` [Mescaline, 3,4,5-Trimethoxyphenethylamine hydrochloride], the inhibition at 10 µM at hMAO-A amounted to 2.5%; at hMAO-B it was 21.2%.
`COc1ccccc1CNCCc1cc(OC)c(OC)c(OC)c1` [Mescaline-NBOMe, 3,4,5-Trimethoxy-N-(2-methoxybenzyl)-β-phenethylamine]: on hMAO-A, the inhibition at 10 µM amounted to 3.9%. Besides, the chromatographic logD in data set [1] stood at 1.34. In addition, the “−Log Pe ± SD” value in data set [3] is listed as 4.7 ± 0.49. Further, at hMAO-B, the inhibition at 10 µM was found to be 89%. Further, in data set [2], the “Bottom (baseline)” value is on record as 1.218, the “Hill Slope” value is given as 2.681, the “Top (maximal effect)” value is 98.57 and the EC50 came to 406 µM.

Broadly, the inhibition is how much of the control response was suppressed. One may read the chromatographic logD as lipophilicity estimated from chromatographic retention. A high value points to a more lipophilic compound.

Values taken from PMC10458253, “Unraveling the In Vitro Toxicity Profile of Psychedelic 2C Phenethylamines and Their N-Benzylphenethylamine (NBOMe) Analogues” (Pharmaceuticals, 2023).
